Laboratory results published in BindingDB's records for doi:10.1111/cbdd.12822 (Wuhan University of Technology, 2016).
pIC50: −log10 of the molar value.

Experiments:
[1] = molecular target: Acetylcholinesterase (Electrophorus electricus, UniProt O42275); assay: AChE and BuChE Inhibition Assay; details: pH 8; 25 °C
Protocol: (§1) This spectrophotometric assay is based on the reaction of 5,5-dithio-bis(2-nitrobenzoic)acid (DTNB) with thiocholine to yield a colored product. Shimadzu (Kyoto, Japan) UV-1700 UV-vis spectrophotometer was used to record the measurements. The enzyme solutions were prepared at 2.5 units/mL concentrationin 1% gelatin solution. BChE/AChE and compound solutions (50 μL each) in 2% DMSO at 10^-1-10^-6 mM concentration were added to 3 mL phosphate buffer (pH 8 &plusnm; 0.1)followed by incubation for 5 min at 25 °C. The reaction was commenced by the addition of acetylthiocholine iodide (ATC) (10 μL) and DTNB (50 μL) to the enzyme-inhibitor mixture. […] The blank reading contained 10 μL substrate, 50 μL DTNB, 50 μL (2%) DMSO, and 3 mL buffer. The reaction was performed in triplicate.

[2] = molecular target: Carboxylic ester hydrolase (Equus caballus, UniProt Q9N1N9); assay: AChE and BuChE Inhibition Assay; details: pH 8; 25 °C
Protocol: as §1

[3] = molecular target: T1, Amine oxidase [flavin-containing] A (Rattus norvegicus, UniProt P21396); assay: Monoamine Oxidase Assay; details: pH 7.4; 38 °C
T1 sequence (P21396 whole entry): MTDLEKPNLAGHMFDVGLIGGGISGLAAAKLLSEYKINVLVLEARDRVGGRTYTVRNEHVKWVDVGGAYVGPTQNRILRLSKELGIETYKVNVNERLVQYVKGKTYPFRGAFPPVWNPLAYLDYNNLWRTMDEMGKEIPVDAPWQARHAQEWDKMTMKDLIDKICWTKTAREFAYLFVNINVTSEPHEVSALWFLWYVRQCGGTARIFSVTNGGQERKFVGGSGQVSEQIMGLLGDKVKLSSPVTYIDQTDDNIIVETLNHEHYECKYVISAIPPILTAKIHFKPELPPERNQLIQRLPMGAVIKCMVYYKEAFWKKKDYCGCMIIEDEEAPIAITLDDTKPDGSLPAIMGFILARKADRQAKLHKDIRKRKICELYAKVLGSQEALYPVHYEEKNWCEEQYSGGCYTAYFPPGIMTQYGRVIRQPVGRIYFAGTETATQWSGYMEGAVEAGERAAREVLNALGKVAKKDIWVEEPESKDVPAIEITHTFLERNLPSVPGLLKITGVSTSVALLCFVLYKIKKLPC

[4] = molecular target: T2, Amine oxidase [flavin-containing] B (Rattus norvegicus, UniProt P19643); assay: Monoamine Oxidase Assay; details: pH 7.4; 38 °C
T2 sequence (P19643 whole entry): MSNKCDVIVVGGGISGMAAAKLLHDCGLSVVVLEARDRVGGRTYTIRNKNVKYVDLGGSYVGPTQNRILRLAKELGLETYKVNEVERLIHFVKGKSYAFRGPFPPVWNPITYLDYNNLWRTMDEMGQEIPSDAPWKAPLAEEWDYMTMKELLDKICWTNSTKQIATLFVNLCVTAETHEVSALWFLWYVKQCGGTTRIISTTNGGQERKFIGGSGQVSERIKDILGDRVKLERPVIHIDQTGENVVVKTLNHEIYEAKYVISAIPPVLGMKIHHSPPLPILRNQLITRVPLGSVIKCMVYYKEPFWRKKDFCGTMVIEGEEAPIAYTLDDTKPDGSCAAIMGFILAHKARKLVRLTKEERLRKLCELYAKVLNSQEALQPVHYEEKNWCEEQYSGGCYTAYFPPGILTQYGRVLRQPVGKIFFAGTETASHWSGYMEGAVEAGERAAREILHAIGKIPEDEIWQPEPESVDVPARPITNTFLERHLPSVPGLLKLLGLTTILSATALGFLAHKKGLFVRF

Chain of Acetylcholinesterase (O42275 whole entry): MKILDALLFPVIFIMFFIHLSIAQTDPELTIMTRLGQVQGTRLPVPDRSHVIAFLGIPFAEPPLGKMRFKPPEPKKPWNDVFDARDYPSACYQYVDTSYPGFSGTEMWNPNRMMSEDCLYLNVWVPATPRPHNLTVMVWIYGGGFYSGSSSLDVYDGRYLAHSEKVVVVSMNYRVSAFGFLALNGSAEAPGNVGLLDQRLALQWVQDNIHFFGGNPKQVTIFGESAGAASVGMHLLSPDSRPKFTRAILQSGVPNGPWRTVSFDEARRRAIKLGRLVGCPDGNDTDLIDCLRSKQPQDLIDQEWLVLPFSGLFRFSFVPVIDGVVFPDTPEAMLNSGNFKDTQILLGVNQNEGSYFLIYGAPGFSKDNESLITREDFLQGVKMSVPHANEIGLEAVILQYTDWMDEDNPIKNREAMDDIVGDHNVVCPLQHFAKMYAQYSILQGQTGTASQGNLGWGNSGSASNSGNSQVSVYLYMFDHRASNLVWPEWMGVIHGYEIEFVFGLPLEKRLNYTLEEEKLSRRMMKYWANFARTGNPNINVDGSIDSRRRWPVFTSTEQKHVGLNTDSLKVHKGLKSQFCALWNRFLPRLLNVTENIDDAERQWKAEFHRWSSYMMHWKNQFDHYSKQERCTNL
Chain of Carboxylic ester hydrolase (Q9N1N9 whole entry): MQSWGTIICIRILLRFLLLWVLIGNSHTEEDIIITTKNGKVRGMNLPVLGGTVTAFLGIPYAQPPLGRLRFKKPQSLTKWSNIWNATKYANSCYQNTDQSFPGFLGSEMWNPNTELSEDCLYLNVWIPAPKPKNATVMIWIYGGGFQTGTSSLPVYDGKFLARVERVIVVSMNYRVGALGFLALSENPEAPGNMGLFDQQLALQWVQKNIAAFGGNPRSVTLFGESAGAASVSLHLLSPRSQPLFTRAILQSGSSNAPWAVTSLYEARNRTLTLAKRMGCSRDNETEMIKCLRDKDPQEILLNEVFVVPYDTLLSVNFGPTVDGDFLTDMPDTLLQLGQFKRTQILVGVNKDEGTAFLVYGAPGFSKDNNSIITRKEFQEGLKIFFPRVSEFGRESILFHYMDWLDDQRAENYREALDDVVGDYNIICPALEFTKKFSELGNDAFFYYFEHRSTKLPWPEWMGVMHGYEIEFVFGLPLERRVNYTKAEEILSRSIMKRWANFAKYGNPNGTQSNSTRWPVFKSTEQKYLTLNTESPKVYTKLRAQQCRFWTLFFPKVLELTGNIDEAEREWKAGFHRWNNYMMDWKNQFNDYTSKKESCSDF

Row | Compound | pIC50 [1] | pIC50 [2] | pIC50 [3] | pIC50 [4]
1 | COc1ccc(/C=C2\CC(C)c3ccccc3C2=O)c(Cl)c1OC (centres undefined) [(2E)-2-[(2-chloro-3,4-dimethoxyphenyl)methylidene]-4-methyl-1,2,3,4-tetrahydronaphthalen-1-one (3e)] | 6.92 | 4.57 | 5.05 | 5.72
2 | COc1cccc(/C=C2\CCc3ccc(F)cc3C2=O)c1Cl [(2E)-2-[(2-chloro-3-methoxyphenyl)methylidene]-7-fluoro-1,2,3,4-tetrahydronaphthalen-1-one (3ab)] | < 4.00 | < 4.00 | 4.71 | 5.16
3 | COc1ccc2c(c1)CC/C(=C\c1ccc(OC)c(OC)c1Cl)C2=O [(2E)-2-[(2-chloro-3,4-dimethoxyphenyl)methylidene]-6-methoxy-1,2,3,4-tetrahydronaphthalen-1-one (3n)] | 4.84 | 4.64 | 4.33 | 4.72
4 | COc1cccc(/C=C2\CCc3ccc(Br)cc3C2=O)c1Cl [(2E)-7-bromo-2-[(2-chloro-3-methoxyphenyl)methylidene]-1,2,3,4-tetrahydronaphthalen-1-one (3y)] | < 4.00 | < 4.00 | < 4.00 | 4.17
5 | COc1cccc(/C=C2\CCc3c(O)cccc3C2=O)c1Cl [(2E)-2-[(2-chloro-3-methoxyphenyl)methylidene]-5-hydroxy-1,2,3,4-tetrahydronaphthalen-1-one (3g)] | < 4.00 | < 4.00 | < 4.00 | 4.25
6 | COc1cccc(/C=C2\CCc3c(OC)ccc(OC)c3C2=O)c1Cl [(2E)-2-[(2-chloro-3-methoxyphenyl)methylidene]-5,8-dimethoxy-1,2,3,4-tetrahydronaphthalen-1-one (3v)] | 4.88 | < 4.00 | < 4.00 | < 4.00
